Key:
A375 melanoma cells = experiment: Antiproliferation assay in A375 cell line by CellTiter Glo; assay type: cell-based; conditions: Homo sapiens, A-375, 72 hours or 144 hours
Experimental: (§1) In vitro anti-proliferation study of test compounds in A375 cell line by CellTiter Glo. The cells were routinely maintained as a monolayer culture in corresponding culture medium, at 37° C. with 5% CO2 in air.
(§2) Exponential growth cells were harvested by trypsin-EDTA digestion. Cell pellet was re-suspended in fresh culture medium, and the concentration adjusted as needed (the cell density per well was listed in following form). The cell viability was over 98% by Trypan blue staining. Cells were incoluated into 96 wells plates according to the plate map (90 μL/well). Plates were incubated at 37° C. and 5% CO2 overnight. The next day, the 10×compound containing medium was prepared according to the plate map. 10 μL of 10×compound containing medium was transferred into each well of the assay plates (the final DMSO concentration was 0.5%). The medium was gently mixed and incubated at 37° C. and 5% CO2 for another 72 hours or 144 hours.
(§3) Reagent was prepared according to the manufacture's instruction. 50 μL CellTiter-Glo Reagent were added in each well. Contents were mixed for 2 minutes on an orbital shaker to induce cell lysis. The plate was incubated at room temperature for 10 minutes to stabilize luminescent signal. 100 μL of reaction contents were transferred of each well from the clear plates into white walled/white opaque 96-well plates. Luminescence was recorded on Envision.
(§4) Using the luminescence measurements [time zero (T0), control growth (C), and test growth in the presence of drug at the six concentration levels (Ti)], the percentage growth was calculated at each of the drug concentrations levels.
(§5) Percentage growth inhibition (GI) was calculated as: GI (%)=[(Ti−T0)/(C-T0)]×100 for concentrations for which Ti>=T0, and GI (%)=[(Ti−T0)/T0]×100 for concentrations for which Ti<T0. Data were analyzed using the XLFit (Excel) tool, fitting to a 4-parameter equation to generate concentration response curves. Concentration of compound that inhibits 50% of control cell growth (GI50) was back-interpolated when y=50% of net growth of DMSO treated control wells using nonlinear regression with the equation: f(x) 205 [fit=(A+((B−A)/(1+((C/x)^D))))], where A is the minimum response (Ymin), B is the maximum response (Ymax), C is the inflection point of the curve (Re GI50) and D is the Hill coefficient. Growth inhibition of 50% (GI50) was calculated at the 50% Growth inhibition on the curve. Index values were the sum of Inhibition rate (IR) at each tested compound concentration.

HT-29 colon cancer cells = experiment: Antiproliferation assay in HT-29 cells (CellTiter Glo); assay type: cell-based; conditions: Homo sapiens, 72 hours or 144 hours
Experimental: [The source words this procedure for another cell line and reports this cell line under the same test.] as §1, §2, §3, §4, §5

P-glycoprotein (MDR1) = experiment: MDCK-MDR1 permeability assay; assay type: in vitro ADME, canine; conditions: dog; for efflux ratio at 120 min: MDCK-MDR1, Papp(B−A)/Papp(A−B); for Papp A→B at 120 min: MDCK-MDR1, apical to basolateral; for Papp A→B at 120 min / Papp B→A at 120 min: 1-30 μM; for Papp B→A at 120 min: MDCK-MDR1, basolateral to apical
Experimental: MDCK-MDR1 cells originated from transfection of Madin Darby canine kidney (MDCK) cells with the MDR1 gene, the gene encoding for the efflux protein, P-glycoprotein. This cell line is ideal for identifying substrates of P-gp, with or without an inhibitor. The cells were seeded on a Multiscreen™ plate to form a confluent monolayer over 4 days prior to the experiment. On day 4, the test compound (1-30 μM concentration) was added to the apical side of the membrane and the transport of the compound across the monolayer was monitored over a 120 minutes time period. To study drug efflux, it was also necessary to investigate transport of the compound from the basolateral compartment to the apical compartment and calculate an efflux ratio.
(§6) The permeability coefficient (Papp) was calculated from the following equation: […]
where dQ/dt is the rate of permeation of the drug across the cells, C0 is the donor compartment concentration at time zero and A is the area of the cell monolayer.
An efflux ratio was calculated from the mean apical to basolateral (A−B) Papp data and basolateral to apical (B−A) Papp data.
Efflux Ratio=Papp(B−A)/Papp(A−B)

[1] = Caco-2 permeability assay; assay type: in vitro ADME; conditions: human; for efflux ratio at 120 min: Caco-2; for Papp A→B at 120 min: Caco-2, apical to basolateral; for Papp A→B at 120 min / Papp B→A at 120 min: 1-30 uM; for Papp B→A at 120 min: Caco-2, basolateral to apical
Experimental: Caco-2 cells are widely used as an in vitro assay to measure the permeability of a drug compound. The Caco-2 cell line is derived from a human colorectal carcinoma, and when cultured, the cells spontaneously differentiate into monolayers of polarized enterocytes. Caco-2 cells express P-glycoprotein and breast cancer resistance protein, two of the most relevant cell membrane active transporters that affect drug compound's permeability into cells and blood brain barrier.
The cells were seeded on Millipore Millicell plates and formed a confluent monolayer over 20 days prior to the experiment. On day 20, the test compound (1-30 uM concentration) was added to the apical side of the membrane and the transport of the compound across the monolayer was monitored over a 120 minutes time period. To study drug efflux, it was also necessary to investigate transport of the compound from the basolateral compartment to the apical compartment.
as §6
where dQ/dt is the rate of permeation of the drug across the cells, C0 is the donor compartment concentration at time zero and A is the area of the cell monolayer. C0 is obtained from analysis of the dosing solution at the start experiment.

[2] = Mouse pharmacokinetics study; assay type: in vivo; conditions: CD-1 mice; for F / AUC / Cmax / Tmax: PO 25 mg/kg; for Vd / half-life / clearance / AUC / Cmax / Tmax: mouse, plasma; for Vd / half-life / clearance: IV 5 mg/kg; for half-life: 20% Hydroxypropyl-beta-cyclodextrin; for clearance: read-out: Clp
Description: The pharmacokinetic properties of Compounds 5 and 6 was studied in CD-1 mice via intravenous and oral administration by using a standard protocol. The test articles were formulated in 20% Hydroxypropyl-beta-cyclodextrin, either as a clear solution or fine suspension.

Row | Structure (SMILES) | GI50 (A375 melanoma cells) [µM] | GI50 (HT-29 colon cancer cells) [µM] | efflux ratio at 120 min (P-glycoprotein (MDR1)) | Papp A→B at 120 min (P-glycoprotein (MDR1)) [nm/s] | Papp B→A at 120 min (P-glycoprotein (MDR1)) [nm/s] | further results
1 | O=C(NC1CNC1)c1c(F)cc(F)cc1Nc1ccc(I)cc1F [Compound 1, N-(azetidin-3-yl)-2,4-difluoro-6-((2-fluoro-4-iodophenyl)amino)benzamide] | 0.1 to 1 | > 1 |  |  |  | 
2 | O=C(NC1CCNC1)c1c(F)cc(F)cc1Nc1ccc(I)cc1F (stereo not shown) [Compound 2, 2,4-difluoro-6-((2-fluoro-4-iodophenyl)amino)-N-(pyrrolidin-3-yl)benzamide] | > 1 |  |  |  |  | 
3 | O=C(NC1CCCNC1)c1c(F)cc(F)cc1Nc1ccc(I)cc1F (stereo not shown) [Compound 3, 2,4-difluoro-6-((2-fluoro-4-iodophenyl)amino)-N-(piperidin-3-yl)benzamide] | > 1 |  |  |  |  | 
4 | O=C(NC1CNC1)c1c(F)c(F)c(F)c(F)c1Nc1ccc(I)cc1F [Compound 4, N-(azetidin-3-yl)-2,3,4,5-tetrafluoro-6-((2-fluoro-4-iodophenyl)amino)benzamide] | 0.1 to 1 | > 1 |  |  |  | 
5 | O=C(NC1CNC1)c1c(F)cncc1Nc1ccc(I)cc1F [Compound 5, N-(azetidin-3-yl)-3-fluoro-5-((2-fluoro-4-iodophenyl)amino)isonicotinamide] | < 0.1 | < 0.1 | 3.42 | 105 | 360 | 
6 | CCN1CC(NC(=O)c2c(F)cncc2Nc2ccc(I)cc2F)C1 [Compound 6, N-(1-ethylazetidin-3-yl)-3-fluoro-5-((2-fluoro-4-iodophenyl)amino)isonicotinamide] | < 0.1 | < 0.1 | 0.53 | 341 | 180 | efflux ratio at 120 min [1]: 0.47; Papp A→B at 120 min [1]: 893 nm/s; Papp B→A at 120 min [1]: 423 nm/s; F [2]: 62.1 ± 11.4%; Vd [2]: 4.2 ± 0.33 L/kg; half-life [2]: 37.5 ± 2.58 min; clearance [2]: 4.67 ± 0.48 L/h/kg; AUC [2]: 3.16 ± 0.641 µg·h/mL; Cmax [2]: 1.07 ± 0.328 µg/mL; Tmax [2]: 30 min
7 | CN1CC(NC(=O)c2c(F)cncc2Nc2ccc(I)cc2F)C1 [Compound 7, 3-fluoro-5-((2-fluoro-4-iodophenyl)amino)-N-(1-methylazetidin-3-yl)isonicotinamide] | < 0.1 |  | 0.58 | 325 | 190 | 
8 | O=C(NC1CN(CCF)C1)c1c(F)cncc1Nc1ccc(I)cc1F [Compound 9, 3-fluoro-5-((2-fluoro-4-iodophenyl)amino)-N-(1-(2-fluoroethyl)azetidin-3-yl)isonicotinamide] |  | < 0.1 |  |  |  | 
9 | C#Cc1ccc(Nc2cncc(F)c2C(=O)NC2CNC2)c(F)c1 [Compound 11, N-(azetidin-3-yl)-3-((4-ethynyl-2-fluorophenyl)amino)-5-fluoroisonicotinamide] | < 0.1 | < 0.1 | 4.08 | 146 | 595 | efflux ratio at 120 min [1]: 2.33; Papp A→B at 120 min [1]: 87.9 nm/s; Papp B→A at 120 min [1]: 205 nm/s; F [2]: 93.1 ± 6.0%; Vd [2]: 67.7 ± 13.9 L/kg; half-life [2]: 542 ± 41.4 min; clearance [2]: 5.16 ± 0.72 L/h/kg; AUC [2]: 4.55 ± 0.301 µg·h/mL; Cmax [2]: 1.7 ± 0.095 µg/mL; Tmax [2]: 40.2 ± 17.4 min
10 | C#Cc1ccc(Nc2cncc(F)c2C(=O)NC2CN(CC)C2)c(F)c1 [Compound 12, N-(1-ethylazetidin-3-yl)-3-((4-ethynyl-2-fluorophenyl)amino)-5-fluoroisonicotinamide] | 0.1 to 1 | 0.1 to 1 |  |  |  | 
11 | O=C(NC1CNC1)c1c(Cl)cncc1Nc1ccc(I)cc1F [Compound 13, N-(azetidin-3-yl)-3-chloro-5-((2-fluoro-4-iodophenyl)amino)isonicotinamide] | < 0.1 |  | 11.8 | 43 | 508 | 
12 | O=C(NC1CNC1)c1c(F)cncc1Nc1ccc(Br)cc1Cl [Compound 14, N-(azetidin-3-yl)-3-((4-bromo-2-chlorophenyl)amino)-5-fluoroisonicotinamide] | 0.1 to 1 | > 1 |  |  |  | 
13 | O=C(NC1CNC1)c1ccncc1Nc1ccc(I)cc1F [Compound 15, N-(azetidin-3-yl)-3-((2-fluoro-4-iodophenyl)amino)isonicotinamide] |  | < 0.1 |  |  |  | 
14 | O=C(O)CCN1CC(NC(=O)c2ccncc2Nc2ccc(I)cc2F)C1 [Compound 18, 3-(3-(3-((2-fluoro-4-iodophenyl)amino)isonicotinamido)azetidin-1-yl)propanoic acid] | > 1 |  |  |  |  | 
15 | O=C(O)CCCN1CC(NC(=O)c2ccncc2Nc2ccc(I)cc2F)C1 [Compound 19, 4-(3-(3-((2-fluoro-4-iodophenyl)amino)isonicotinamido)azetidin-1-yl)butanoic acid] | 0.1 to 1 |  |  |  |  | 
16 | CC(=O)N1CC(NC(=O)c2c(F)cncc2Nc2ccc(I)cc2F)C1 [Compound 20, N-(1-acetylazetidin-3-yl)-3-fluoro-5-((2-fluoro-4-iodophenyl)amino)isonicotinamide] | > 1 |  |  |  |  | 

Reference: patent US20240083844A1, “KINASE INHIBITORS AND USES THEREOF” (ABM Therapeutics Corporation, priority 2020, published 2024)
